The values that follow come from ChEMBL document CHEMBL4831510, “Novel cannabidiol-carbamate hybrids as selective BuChE inhibitors: Docking-based fragment reassembly for the development of potential therapeutic agents against Alzheimer's disease” (Eur J Med Chem, 2021).

The source made the active and inactive calls. The rule behind the calls is not given here.

Data set [1] in a line: Antioxidant activity assessed as DPPH radical scavenging activity at 100 uM incubated for 2 hrs by microplate reader method. The format is functional.
Data set [2] addresses Acetylcholinesterase (Electrophorus electricus, UniProt O42275). Description: Inhibition of electric eel AChE using acetylthiocholine iodide as substrate preincubated with enzyme for 20 mins followed by substrate addition and measured after 20 mins by Ellman's method. On the technique in general: In Ellman's method for cholinesterases, released thiocholine reacts with DTNB.

In data set [3] the target is T1, Cholinesterase (Equus caballus, UniProt P81908).
Description: Inhibition of equine serum BuChE using butyrylthiocholine iodide as substrate preincubated with enzyme for 20 mins followed by substrate addition and measured after 20 mins by Ellman's method
Data set [4] can be described thus: Cytotoxicity against human HepG2 cells assessed as cell viability at 50 uM incubated for 24 hrs by MTT assay. The format is cell-based. The note with it: read-out: Activity. For orientation: Tetrazolium dyes change colour on reduction, which living cells bring about.
The subject of data set [5] is Mus musculus. The experiment in a line: Anti-alzheimer activity against scopolamine-induced cognitive dysfunction mouse model assessed as reduction in escape time latency at 10 mg/kg, ip measured after 60 mins by Morris water maze test. The class given is functional, organism-based.
Data set [6] has as its system Mus musculus. Description: Anti-alzheimer activity against oligomerized-amyloid beta (1 to 42) peptide-induced cognitive dysfunction ICR mouse model assessed as reduction in escape latency time at 15 mg/kg, po administered from day 3 to 14 by Morris water maze test. The class given is functional, organism-based. The note with it: time 12.0 day.
Data set [7] concerns Mus musculus. The experiment in a line: Anti-alzheimer activity against scopolamine-induced cognitive dysfunction mouse model assessed as increase in number of platform crossing at 10 mg/kg, ip measured after 60 mins by Morris water maze test. The class given is functional, organism-based.
For data set [8], the system named is Mus musculus. The experiment in a line: Anti-alzheimer activity against scopolamine-induced cognitive dysfunction mouse model assessed as increase in swimming time in the target quadrant crossing at 10 mg/kg, ip measured after 60 mins by Morris water maze test. The class given is functional, organism-based.
In data set [9] the test system is Mus musculus. Description: Anti-alzheimer activity against oligomerized-amyloid beta (1 to 42) peptide-induced cognitive dysfunction ICR mouse model assessed as simplification of trajectories to the platform at 15 mg/kg, po administered from day 3 to 14 by Morris water maze test. Conditions: time 12.0 day. The class given is functional, organism-based.
The test system of data set [10] is Mus musculus. The experiment in a line: Anti-alzheimer activity against oligomerized-amyloid beta (1 to 42) peptide-induced cognitive dysfunction ICR mouse model assessed as improvement in alteration performance at 15 mg/kg, po administered from day 3 to 14 by […]. The format is functional, organism-based. The note with it: time 12.0 day.
The species named for data set [11] is Mus musculus. The experiment in a line: animal or person. The note with it: ICR, po, 288 h, read-out: INH.
Description: Anti-alzheimer activity against oligomerized-amyloid beta (1 to 42) peptide-induced cognitive dysfunction ICR mouse model assessed as reduction in amyloid beta (1 to 42) peptide level in brain at 15 mg/kg, po administered from day 3 to 14 by ELISA
Data set [12] in a line: n-Octanol/PBS partition coefficient, logP of the compound incubated for 48 hrs at pH 7.4 by shake flask method. The class given is physicochemical.
In data set [13] the target is Acetylcholinesterase (Electrophorus electricus) (UniProt O42275). The experiment in a line: Inhibition of electric eel AChE using acetylthiocholine iodide as substrate at 20 uM preincubated with enzyme for 20 mins followed by substrate addition and measured after 20 mins by Ellman's method. The note with it: time 40.0 min.
Data set [14] can be described thus: Cytotoxicity against human L02 cells assessed as cell viability at 50 uM incubated for 24 hrs by MTT assay. The class given is cell-based. The note with it: read-out: Activity.
A short description of data set [15]: Cytotoxicity against human HepG2 cells assessed as cell viability at 25 uM incubated for 24 hrs by MTT assay. The note with it: read-out: Activity. The format is cell-based.
Data set [16] is described as follows: Permeability of the compound at 100 ug/ml incubated for 18 hrs by PAMPA. The class given is ADME. The note with it: dose 100 µg/ml, read-out: permeability. Background: The PAMPA barrier holds no transporters, so it reflects passive diffusion.
The test system of another data set is PC-12. Description: Neuroprotective activity against H2O2-induced cytotoxicity in rat PC-12 cells assessed as cell viability at 25 uM pretreated for 3 hrs followed by H2O2 stimulation and measured after 24 hrs by MTT assay (reference value: 38.7%). The format is functional. The note with it: time 27 hrs, read-out: Activity.
Data set [17] deals with T1, Cholinesterase. Description: Pseudo-irreversible inhibition of equine serum BuChE assessed as binding affinity in an equilibrium state using butyrylthiocholine iodide as substrate preincubated with enzyme for 60 mins prior to substrate addition. The format is cell-free.
For data set [18], the target named is Cholinesterase (Equus caballus) (UniProt P81908). The experiment in a line: Pseudo-irreversible inhibition of equine serum BuChE assessed as carbamolyation-rate using butyrylthiocholine iodide as substrate preincubated with enzyme for 60 mins prior to substrate addition. The class given is cell-free.
Data set [19] shares this target. Description: Pseudo-irreversible inhibition of equine serum BuChE assessed as overall carbamolyation-rate using butyrylthiocholine iodide as substrate preincubated with enzyme for 60 mins prior to substrate addition. The format is cell-free.
Data set [20] has the same target. The experiment in a line: Pseudo-irreversible inhibition of equine serum BuChE assessed as decarbamolyation-rate using butyrylthiocholine iodide as substrate preincubated with enzyme for 60 mins prior to substrate addition. The class given is cell-free.
Data set [21] addresses T2, Acetylcholinesterase (Homo sapiens, UniProt P22303). Description: Inhibition of human AChE using acetylthiocholine iodide as substrate at 20 uM preincubated with enzyme for 5 mins followed by substrate addition and measured after 5 mins by Ellman's method. The note with it: time 10.0 min.
The target in data set [22] is Cholinesterase (Homo sapiens, UniProt P06276).
Description: Inhibition of human serum BuChE using butyrylthiocholine iodide as substrate preincubated with enzyme for 5 mins followed by substrate addition and measured after 5 mins by Ellman's method
Data set [23] has as its target T2, Acetylcholinesterase. The experiment in a line: Inhibition of human AChE using acetylthiocholine iodide as substrate preincubated with enzyme for 5 mins followed by substrate addition and measured after 5 mins by Ellman's method.

T2 sequence (P22303 whole entry): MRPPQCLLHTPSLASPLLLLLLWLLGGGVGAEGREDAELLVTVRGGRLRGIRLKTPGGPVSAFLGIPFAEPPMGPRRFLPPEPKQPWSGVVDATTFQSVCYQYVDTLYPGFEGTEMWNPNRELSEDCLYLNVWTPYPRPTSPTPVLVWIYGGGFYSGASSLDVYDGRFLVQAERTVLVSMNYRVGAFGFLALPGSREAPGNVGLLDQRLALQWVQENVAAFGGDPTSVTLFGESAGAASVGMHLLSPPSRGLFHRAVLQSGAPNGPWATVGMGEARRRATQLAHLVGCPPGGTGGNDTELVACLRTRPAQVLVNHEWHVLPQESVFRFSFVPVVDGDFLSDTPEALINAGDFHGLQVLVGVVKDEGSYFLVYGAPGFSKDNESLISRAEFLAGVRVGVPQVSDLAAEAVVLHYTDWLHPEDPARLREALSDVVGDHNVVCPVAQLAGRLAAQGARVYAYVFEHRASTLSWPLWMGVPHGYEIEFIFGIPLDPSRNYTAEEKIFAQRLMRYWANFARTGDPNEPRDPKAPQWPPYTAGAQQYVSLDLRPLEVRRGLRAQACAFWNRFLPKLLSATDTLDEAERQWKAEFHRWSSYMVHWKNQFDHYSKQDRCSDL
Cholinesterase (Equus caballus), sequence (P81908 whole entry): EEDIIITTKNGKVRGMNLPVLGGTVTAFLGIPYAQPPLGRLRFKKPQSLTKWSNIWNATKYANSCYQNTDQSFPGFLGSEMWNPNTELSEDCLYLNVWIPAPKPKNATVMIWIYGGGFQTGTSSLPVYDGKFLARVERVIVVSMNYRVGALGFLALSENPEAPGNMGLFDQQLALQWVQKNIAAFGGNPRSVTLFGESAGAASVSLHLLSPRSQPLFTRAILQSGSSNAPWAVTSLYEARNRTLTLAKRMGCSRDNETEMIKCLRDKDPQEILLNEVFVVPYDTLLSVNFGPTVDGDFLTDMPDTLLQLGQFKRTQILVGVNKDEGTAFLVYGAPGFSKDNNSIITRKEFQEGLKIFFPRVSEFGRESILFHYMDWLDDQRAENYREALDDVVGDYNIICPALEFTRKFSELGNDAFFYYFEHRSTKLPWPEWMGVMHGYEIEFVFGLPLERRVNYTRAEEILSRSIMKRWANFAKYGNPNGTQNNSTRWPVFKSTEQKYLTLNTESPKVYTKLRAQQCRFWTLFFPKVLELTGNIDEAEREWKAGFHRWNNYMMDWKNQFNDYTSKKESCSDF
T1 sequence (P81908 whole entry): as above
Acetylcholinesterase (Electrophorus electricus), sequence (O42275 24-633 limits assumed): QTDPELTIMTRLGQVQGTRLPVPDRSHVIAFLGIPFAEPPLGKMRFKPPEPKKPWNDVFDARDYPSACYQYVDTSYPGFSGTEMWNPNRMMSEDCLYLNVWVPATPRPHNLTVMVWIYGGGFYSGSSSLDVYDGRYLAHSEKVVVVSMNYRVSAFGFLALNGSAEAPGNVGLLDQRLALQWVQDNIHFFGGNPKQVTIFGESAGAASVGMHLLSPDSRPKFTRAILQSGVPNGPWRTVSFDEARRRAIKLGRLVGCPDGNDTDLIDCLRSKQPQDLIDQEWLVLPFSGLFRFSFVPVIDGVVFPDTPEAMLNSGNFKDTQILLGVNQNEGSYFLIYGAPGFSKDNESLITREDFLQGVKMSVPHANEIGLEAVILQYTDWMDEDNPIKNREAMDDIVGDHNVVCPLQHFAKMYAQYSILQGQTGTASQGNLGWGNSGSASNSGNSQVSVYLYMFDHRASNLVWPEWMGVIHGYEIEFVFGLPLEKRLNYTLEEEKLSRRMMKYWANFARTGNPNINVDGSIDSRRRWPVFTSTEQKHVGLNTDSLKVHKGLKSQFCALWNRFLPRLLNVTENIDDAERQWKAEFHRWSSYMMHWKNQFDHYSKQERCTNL
Acetylcholinesterase (Electrophorus electricus, UniProt O42275), sequence (O42275 whole entry): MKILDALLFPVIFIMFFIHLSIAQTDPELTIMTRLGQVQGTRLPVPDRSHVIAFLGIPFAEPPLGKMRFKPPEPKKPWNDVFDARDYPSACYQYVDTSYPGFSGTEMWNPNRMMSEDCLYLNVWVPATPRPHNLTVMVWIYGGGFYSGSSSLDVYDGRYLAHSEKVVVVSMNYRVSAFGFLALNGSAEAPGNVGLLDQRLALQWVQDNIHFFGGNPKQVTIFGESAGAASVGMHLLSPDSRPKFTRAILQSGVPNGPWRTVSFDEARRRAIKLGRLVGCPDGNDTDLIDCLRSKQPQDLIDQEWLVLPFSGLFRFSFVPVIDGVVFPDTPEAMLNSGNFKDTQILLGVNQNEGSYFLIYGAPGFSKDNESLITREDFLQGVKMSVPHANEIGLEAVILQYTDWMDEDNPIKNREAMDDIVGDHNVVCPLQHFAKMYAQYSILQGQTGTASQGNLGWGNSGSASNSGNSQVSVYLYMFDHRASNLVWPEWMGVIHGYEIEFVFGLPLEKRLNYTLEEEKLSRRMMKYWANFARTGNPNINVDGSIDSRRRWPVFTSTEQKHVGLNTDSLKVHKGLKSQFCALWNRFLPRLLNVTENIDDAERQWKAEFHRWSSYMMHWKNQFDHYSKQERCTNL
Cholinesterase (Homo sapiens, UniProt P06276), sequence (P06276 whole entry): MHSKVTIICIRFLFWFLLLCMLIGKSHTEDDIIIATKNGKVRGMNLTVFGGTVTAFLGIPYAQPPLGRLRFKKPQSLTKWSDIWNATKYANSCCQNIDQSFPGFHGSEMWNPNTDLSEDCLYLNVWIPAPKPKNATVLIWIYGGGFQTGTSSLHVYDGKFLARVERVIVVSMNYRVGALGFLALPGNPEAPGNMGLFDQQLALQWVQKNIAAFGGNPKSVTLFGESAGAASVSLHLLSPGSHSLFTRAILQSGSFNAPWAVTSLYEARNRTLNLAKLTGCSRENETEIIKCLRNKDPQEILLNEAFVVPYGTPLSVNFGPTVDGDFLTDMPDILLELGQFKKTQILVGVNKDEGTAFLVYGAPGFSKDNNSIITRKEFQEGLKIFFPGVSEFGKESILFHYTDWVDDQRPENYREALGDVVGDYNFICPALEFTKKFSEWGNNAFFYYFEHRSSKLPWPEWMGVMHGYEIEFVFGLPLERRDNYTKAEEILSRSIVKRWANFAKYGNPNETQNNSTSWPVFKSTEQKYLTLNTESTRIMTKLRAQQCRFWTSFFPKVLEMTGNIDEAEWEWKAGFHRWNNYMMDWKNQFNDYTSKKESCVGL

A word on the inhibition: it is the percentage by which the read-out fell short of the control. One may read the IC50 as the concentration needed to halve the response being measured. For the compound `C=C(C)[C@@H]1CCC(C)=C[C@H]1c1c(OC(=O)N(C)Cc2ccccc2)cc(CCCCC)cc1OC(=O)N(C)Cc1ccccc1`, in data set [1], the inhibition came to 41.8%. Further, the results for the 50% inhibitory concentration (IC50) entry at Acetylcholinesterase [2] and against Cholinesterase [3] were “Not Active” and 380 nM, respectively.

On to `COc1cc2c(cc1OC)C(=O)C(CC1CCN(Cc3ccccc3)CC1)C2` (centres undefined) [DONEPEZIL], for which, in data set [4], the viability at 24 h, 50 µM was 91.1%. In data set [1], the inhibition worked out at 1.3%. In addition, the result in the data set with Mus musculus [5], in the data set with Mus musculus [6], in the data set on Mus musculus [7], in the data set with Mus musculus [8], in the data set with Mus musculus [9] and in the data set on Mus musculus [10] was Active. In addition, the inhibition in vivo at 15 mg/kg in the data set listed under Mus musculus [11] worked out at 19%.

Regarding `C=C(C)[C@@H]1CCC(C)=C[C@H]1c1c(O)cc(CCCCC)cc1OC(=O)N(C)Cc1cccc(F)c1`, the inhibition result in data set [1] is “inactive”. For the same compound, the IC50 entry against Acetylcholinesterase [2] is “Not Active”; on Cholinesterase [3] it was 4870 nM.

Usually logD stands for the decadic logarithm of the distribution of all forms, ionised or not, between an organic phase and buffer at a given pH. The low end stands for lower lipophilicity, the high end for higher lipophilicity. Regarding `C=C(C)[C@@H]1CCC(C)=C[C@H]1c1c(OC(=O)N(C)CC)cc(CCCCC)cc1OC(=O)N(C)CC`, in data set [1], the inhibition turned out to be 0.1%. For the same compound, the half-inhibitory concentration (IC50) entry on Acetylcholinesterase [2] was “Not Active”; at Cholinesterase [3], 290 nM. Further, in data set [12], the logD at 48 h was found to be 2.57.

In the case of `C=C(C)[C@@H]1CCC(C)=C[C@H]1c1c(OC(=O)N2CCOCC2)cc(CCCCC)cc1OC(=O)N1CCOCC1`, the inhibition in data set [1] stood at 2%. Moreover, the values for the IC50 entry against Acetylcholinesterase [2] and at Cholinesterase [3] were “Not Active” and 3360 nM, respectively.

Regarding `C=C(C)[C@@H]1CCC(C)=C[C@H]1c1c(O)cc(CCCCC)cc1OC(=O)N(CC)CC`, the inhibition is 40.4% in data set [1] and 28.4% in [13]. The same compound showed an IC50 against Cholinesterase [3] of 370 nM.

With `C=C(C)[C@@H]1CCC(C)=C[C@H]1c1c(O)cc(CCCCC)cc1OC(=O)N(C)Cc1cccc(Cl)c1`, the inhibition result in data set [1] was “inactive”. Further, the figures for the IC50 result at Acetylcholinesterase [2] and against Cholinesterase [3] were “Not Active” and 2820 nM, respectively.

Turning to `C=C(C)[C@@H]1CCC(C)=C[C@H]1c1c(O)cc(CCCCC)cc1O` [CANNABIDIOL], the viability at 24 h, 50 µM in [14] is 92.6%. The viability at 24 h, 25 µM in data set [15] was found to be 20.1%. In data set [1], the inhibition worked out at 66.7%. In addition, the results for the IC50 at Acetylcholinesterase [2] (read-out: IC50) and against Cholinesterase [3] were 17100 nM and 670 nM, respectively. The same compound yielded a logD at 48 h in [12] of 1.67. Besides, in data set [16], the Papp at 18 h, 100 ug/ml came out at 22.7 ×10⁻⁶ cm/s. Besides, the viability at 25 µM in the data set on PC-12 came to 17.9%.

Consider `C=C(C)[C@@H]1CCC(C)=C[C@H]1c1c(O)cc(CCCCC)cc1OC(=O)N(C)C`, for which the inhibition is 27.1% in [1] and 36.1% in data set [13]. The compound further displayed an IC50 against Cholinesterase [3] of 200 nM.

One may read the Kd as the equilibrium constant for the complex coming apart. As to `C=C(C)[C@@H]1CCC(C)=C[C@H]1c1c(O)cc(CCCCC)cc1OC(=O)N1CCCC1`, in data set [1], the inhibition worked out at 4.9%. Moreover, the IC50 result against Acetylcholinesterase [2] was “Not Active”; on Cholinesterase [3], 390 nM. Moreover, the Kd on Cholinesterase [17] was 350 nM. In addition, the K in data set [18] is 0.33 min⁻¹; in data set [19], 0.94 µM/min; in data set [20], 5.13 10^3/min.

With `C=C(C)[C@@H]1CCC(C)=C[C@H]1c1c(O)cc(CCCCC)cc1OC(=O)N(C)CC`, the inhibition at Acetylcholinesterase [21] worked out at 13.2%; in data set [1], 31.1%. Moreover, the IC50 at Acetylcholinesterase [2] (read-out: IC50) is 15000 nM; against Cholinesterase [22], 1510 nM; against Cholinesterase [3], 77 nM. In addition, in data set [12], the log distribution coefficient (logD) at 48 h amounted to 1.92. Moreover, the Papp at 18 h, 100 ug/ml in data set [16] was 18.8 ×10⁻⁶ cm/s.

With `CCN(C)C(=O)Oc1cccc([C@H](C)N(C)C)c1`, the inhibition at Acetylcholinesterase [21] worked out at 12.2%; in data set [1], 2.5%. Besides, the K was 0.3 min⁻¹ in [18], 0.26 µM/min in [19] and 4.97 10^3/min in data set [20].

Take `C=C(C)[C@@H]1CCC(C)=C[C@H]1c1c(O)cc(CCCCC)cc1OC(=O)N1CCOCC1`: the inhibition in data set [1] worked out at 21.1%. The figures for the concentration for half-maximal inhibition (IC50) entry against Acetylcholinesterase [2] and at Cholinesterase [3] were “Not Active” and 1890 nM, respectively.

For the compound `C=C(C)[C@@H]1CCC(C)=C[C@H]1c1c(O)cc(CCCCC)cc1OC(=O)N(C)Cc1cccc(Br)c1`, in data set [1], the inhibition result is “inactive”. For the same compound, the IC50 entry against Acetylcholinesterase [2] was “Not Active”; against Cholinesterase [3], 2400 nM.

As for `C=C(C)[C@@H]1CCC(C)=C[C@H]1c1c(O)cc(CCCCC)cc1OC(=O)N(C)Cc1ccccc1`, the inhibition in data set [1] was 21.1%. The IC50 result at Acetylcholinesterase [2] is “Not Active”; against Cholinesterase [3], 46 nM. Also, the logD at 48 h in data set [12] was 2.2.

In the case of `C=C(C)[C@@H]1CCC(C)=C[C@H]1c1c(O)cc(CCCCC)cc1OC(=O)N1CCCCC1`, the inhibition in [1] was determined as 46.8%; in data set [13], 30.5%. Half-maximal inhibition against Cholinesterase [3] (IC50) required 530 nM.

`C=C(C)[C@@H]1CCC(C)=C[C@H]1c1c(OC(=O)N2CCCC2)cc(CCCCC)cc1OC(=O)N1CCCC1`: the inhibition in data set [1] worked out at 17.8%. The results for the IC50 result on Acetylcholinesterase [2] and on Cholinesterase [3] were “Not Active” and 530 nM, respectively.

Take `C=C(C)[C@@H]1CCC(C)=C[C@H]1c1c(O)cc(CCCCC)cc1OC(=O)N(C)Cc1ccc(F)cc1`: the inhibition in data set [1] was 27%. For the same compound, the results for the IC50 result against Acetylcholinesterase [2] and at Cholinesterase [3] were “Not Active” and 69 nM, respectively.

On to `C=C(C)[C@@H]1CCC(C)=C[C@H]1c1c(O)cc(CCCCC)cc1OC(=O)N(C)Cc1ccc(Br)cc1`, for which the IC50 result at Acetylcholinesterase [23] was “Not Active”; on Acetylcholinesterase [2] it was “Not Active”; at Cholinesterase [22], 2150 nM; at Cholinesterase [3] it was 7.3 nM. Besides, the inhibition in data set [1] worked out at 41.8%. Besides, in data set [12], the logD at 48 h worked out at 2.37.

As to `O=C1O[C@H]([C@@H](O)CO)C(O)=C1O`, the inhibition in [1] was found to be 86.2%.
